A short description of assay [1]: Luminescence Cell-Based Dose Retest to Confirm Inhibitors of Cancer Stem Cells. [Related pubchem assays (depositor defined):AID2717, AID2721]. In kind it is functional. The following applies: Homo sapiens.
In assay [2] the target is T1, High affinity choline transporter 1 (Homo sapiens, UniProt Q9GZV3).
T1 sequence (Q9GZV3 whole entry): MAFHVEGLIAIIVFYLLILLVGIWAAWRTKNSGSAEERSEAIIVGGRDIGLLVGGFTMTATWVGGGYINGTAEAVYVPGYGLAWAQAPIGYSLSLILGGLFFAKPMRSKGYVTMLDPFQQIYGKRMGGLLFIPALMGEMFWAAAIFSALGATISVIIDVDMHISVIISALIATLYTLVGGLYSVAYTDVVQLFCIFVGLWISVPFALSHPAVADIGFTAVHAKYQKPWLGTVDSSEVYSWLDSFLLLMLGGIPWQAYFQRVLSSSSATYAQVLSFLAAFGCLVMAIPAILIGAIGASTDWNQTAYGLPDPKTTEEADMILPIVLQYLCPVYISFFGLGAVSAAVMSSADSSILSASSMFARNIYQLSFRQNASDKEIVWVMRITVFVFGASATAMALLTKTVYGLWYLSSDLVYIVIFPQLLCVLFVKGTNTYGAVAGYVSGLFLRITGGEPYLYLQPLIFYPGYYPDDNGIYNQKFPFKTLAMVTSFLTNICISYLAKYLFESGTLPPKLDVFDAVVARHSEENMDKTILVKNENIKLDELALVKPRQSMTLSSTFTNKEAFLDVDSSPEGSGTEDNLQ
Put plainly: CHT inhibitors, dose response, cell-based, 5-point CRC, membrane potential dye (AID 504840). It is filed as functional.

The next assay deals with Vero. Nature of the assay: Vero cell cytotoxicity, cytotoxicity control for flavivirus capping enzyme inhibitors (AID 588742). It is filed as functional. The following applies: Chlorocebus sabaeus.
Assay [3] has as its target T1, High affinity choline transporter 1. Put plainly: CHT inhibitors, dose response, cell-based, 10-point CRC, membrane potential dye (AID 588401).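 Further: membrane potential dye fluorescence of choline-evoked depolarization via CHT.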 In kind it is functional.
The target of the next assay is Genome polyprotein (dengue virus type 2, UniProt P29990). Put plainly: Dengue-2 NS5 methyltransferase inhibitors, primary screen, biochemical, confirmation dose response (AID 588689). In kind it is functional.
Another assay has as its target Large T antigen (Simian virus 40, UniProt P03070). In kind it is functional, Betapolyomavirus macacae.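 Further: Confirmatory-stage PubChem screen for compounds that inhibit SV40 T antigen.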
The target of assay [4] is Induced myeloid leukemia cell differentiation protein Mcl-1 (Homo sapiens, UniProt Q07820). In kind it is functional.
A further assay relates to HeLa. Nature of the assay: HeLa cell cytotoxicity, dose response, cytotoxicity control, 24 h, cherry-picked samples (AID 504726).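 Further: potency for cytotoxicity as loss of luminescence signal.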 It is filed as functional, cell-based. The following applies: Homo sapiens.
For the next assay, the target named is ORF 73 (Human herpesvirus 8, UniProt O40947). Put plainly: inhibitors of C-LANA binding to LBS DNA, dose response, biochemical, fluorescence polarization, cherry-picked samples (AID 504725).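 Further: fluorescence polarization of a labeled DNA duplex reporting LANA DNA binding; potency is for inhibitors that block LANA binding to the DNA.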 Also on record: species or system Human gammaherpesvirus 8.
For assay [5], the target named is Intestinal-type alkaline phosphatase (Homo sapiens, UniProt P09923). Put plainly: activation of human intestinal alkaline phosphatase – biochemical, dose response (AID 488873). It is filed as functional.
In assay [6] the target is Intestinal-type alkaline phosphatase (Mus musculus, UniProt P24822). Put plainly: PubChem AID 488785. In kind it is functional.
Assay [7] addresses Eukaryotic translation initiation factor 4E (Mus musculus, UniProt P63073). Put plainly: eIF4E–eIF4G protein interaction inhibitors, dose response, biochemical, TR-FRET (AID 855).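 Further: potency for disrupting eIF4E binding to eIF4GI seen as loss of FRET.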 It is filed as functional.
For assay [8], the target named is T2, Alkaline phosphatase, tissue-nonspecific isozyme (Homo sapiens, UniProt P05186).
T2 sequence (P05186 whole entry): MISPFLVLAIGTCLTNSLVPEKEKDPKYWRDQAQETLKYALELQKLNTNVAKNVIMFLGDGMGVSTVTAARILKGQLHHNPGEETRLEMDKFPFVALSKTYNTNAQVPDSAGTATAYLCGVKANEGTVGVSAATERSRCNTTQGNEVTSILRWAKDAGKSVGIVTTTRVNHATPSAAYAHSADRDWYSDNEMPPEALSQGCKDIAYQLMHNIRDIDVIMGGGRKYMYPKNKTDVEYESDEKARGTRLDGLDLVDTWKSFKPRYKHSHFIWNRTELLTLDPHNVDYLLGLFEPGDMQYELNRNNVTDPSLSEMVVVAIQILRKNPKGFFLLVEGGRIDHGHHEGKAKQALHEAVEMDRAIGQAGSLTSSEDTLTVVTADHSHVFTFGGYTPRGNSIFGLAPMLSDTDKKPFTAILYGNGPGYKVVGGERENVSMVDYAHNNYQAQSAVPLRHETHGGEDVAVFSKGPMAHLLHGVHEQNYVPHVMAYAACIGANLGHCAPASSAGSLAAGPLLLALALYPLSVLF
Nature of the assay: TNAP enzyme inhibition by screening hits, dose response, selectivity assay for mouse IAP inhibitor project, biochemical, human TNAP, uHTS hits (AID 488906). In kind it is functional.

For assay [9], the target named is T3, DNA dC->dU-editing enzyme APOBEC-3A (Homo sapiens, UniProt P31941). Nature of the assay: SAR analysis of small molecule inhibitors of APOBEC3A DNA Deaminase via a fluorescence-based single-stranded DNA deaminase assay - Set 2. The following applies: read-out: IC50_Mean. In kind it is functional.
The target in assay [10] is T4, DNA dC->dU-editing enzyme APOBEC-3G (Homo sapiens, UniProt Q9HC16). Nature of the assay: SAR analysis of small molecule inhibitors of APOBEC3G DNA Deaminase via a fluorescence-based single-stranded DNA deaminase assay - Set 2. It is filed as functional. The following applies: read-out: IC50_Mean.
In assay [11] the target is T4, DNA dC->dU-editing enzyme APOBEC-3G. Put plainly: APOBEC3G deaminase inhibitors, SAR follow-up, biochemical, fluorescence, single-stranded DNA substrate (AID 602136). The following applies: read-out: IC50_Mean. In kind it is functional.
For assay [12], the target named is T3, DNA dC->dU-editing enzyme APOBEC-3A. Put plainly: SAR analysis of small molecule inhibitors of APOBEC3A DNA Deaminase via a fluorescence-based single-stranded DNA deaminase assay. In kind it is functional. The following applies: read-out: IC50_Mean.
Assay [13] deals with T5, Small ubiquitin-related modifier 2 (Homo sapiens, UniProt P61956). Nature of the assay: SUMO2–SIM peptide binding inhibitors, dose response, selectivity assay for SUMO1 interaction inhibitor project, biochemical, fluorescence polarization, uHTS hits (AID 624385). It is filed as functional. The following applies: read-out: IC50_Mean.
The target of assay [14] is T6, Small ubiquitin-related modifier 1 (Homo sapiens, UniProt P63165). Nature of the assay: inhibitors of SUMO1 peptide binding, dose response, biochemical, fluorescence polarization, uHTS hits (AID 624382). In kind it is functional. The following applies: read-out: IC50_Mean.
In assay [15] the target is T5, Small ubiquitin-related modifier 2. Put plainly: inhibitors of SUMO2 protein-protein interaction, dose response, selectivity assay for SUMO1 interaction inhibitor project, biochemical, FRET, human SUMO2, uHTS hits (AID 624384). In kind it is functional. The following applies: read-out: IC50_Mean.
For assay [16], the target named is T6, Small ubiquitin-related modifier 1. Nature of the assay: inhibitors of SUMO1 partner interactions, dose response, biochemical, FRET (AID 624383). It is filed as functional. The following applies: read-out: IC50_Mean.
Assay [17] deals with T7, Histone-lysine N-methyltransferase NSD2 (Homo sapiens, UniProt O96028).
T7 sequence (O96028 whole entry): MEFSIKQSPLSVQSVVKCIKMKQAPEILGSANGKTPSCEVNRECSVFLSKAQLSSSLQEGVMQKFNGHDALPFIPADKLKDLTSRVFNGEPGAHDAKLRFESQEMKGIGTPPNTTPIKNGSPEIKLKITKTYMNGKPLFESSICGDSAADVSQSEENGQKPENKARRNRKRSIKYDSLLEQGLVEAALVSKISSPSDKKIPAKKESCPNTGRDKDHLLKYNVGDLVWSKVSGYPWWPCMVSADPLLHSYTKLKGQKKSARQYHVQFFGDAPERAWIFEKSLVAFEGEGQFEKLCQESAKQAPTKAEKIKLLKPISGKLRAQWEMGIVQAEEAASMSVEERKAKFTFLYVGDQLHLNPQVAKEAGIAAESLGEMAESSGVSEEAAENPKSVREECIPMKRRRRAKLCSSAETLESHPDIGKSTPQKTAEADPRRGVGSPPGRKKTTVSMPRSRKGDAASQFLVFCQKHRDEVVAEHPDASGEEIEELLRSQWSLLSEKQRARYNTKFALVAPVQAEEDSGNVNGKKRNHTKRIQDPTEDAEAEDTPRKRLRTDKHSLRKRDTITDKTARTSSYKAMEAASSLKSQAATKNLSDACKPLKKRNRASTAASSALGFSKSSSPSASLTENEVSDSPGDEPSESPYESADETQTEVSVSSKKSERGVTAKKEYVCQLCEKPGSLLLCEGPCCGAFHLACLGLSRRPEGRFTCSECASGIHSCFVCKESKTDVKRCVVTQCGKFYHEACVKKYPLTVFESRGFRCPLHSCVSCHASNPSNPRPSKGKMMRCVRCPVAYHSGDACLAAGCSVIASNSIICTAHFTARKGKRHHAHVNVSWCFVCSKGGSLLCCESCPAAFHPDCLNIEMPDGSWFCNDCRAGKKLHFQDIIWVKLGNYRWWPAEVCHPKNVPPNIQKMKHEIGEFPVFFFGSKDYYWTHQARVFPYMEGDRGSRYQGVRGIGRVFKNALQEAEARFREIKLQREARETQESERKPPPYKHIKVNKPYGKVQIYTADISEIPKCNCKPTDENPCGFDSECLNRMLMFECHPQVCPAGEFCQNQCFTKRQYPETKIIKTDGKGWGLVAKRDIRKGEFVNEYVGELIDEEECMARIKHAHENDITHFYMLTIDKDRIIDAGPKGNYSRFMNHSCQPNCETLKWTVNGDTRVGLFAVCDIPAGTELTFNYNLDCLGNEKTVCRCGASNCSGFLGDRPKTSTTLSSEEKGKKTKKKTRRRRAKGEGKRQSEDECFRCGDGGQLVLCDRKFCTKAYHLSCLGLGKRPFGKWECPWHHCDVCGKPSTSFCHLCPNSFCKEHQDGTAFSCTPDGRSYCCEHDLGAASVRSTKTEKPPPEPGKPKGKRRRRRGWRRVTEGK
In kind it is biochemical.

The target of assay [18] is Melanin-concentrating hormone receptor 1 (Homo sapiens, UniProt Q99705). Nature of the assay: Late-stage fluorescence-based counterscreen for antagonists of the G-protein coupled receptor 7 (GPR7): cell-based dose response assay to identify antagonists of the melanin-concentrating hormone receptor 1 (MCHR1) Set 6. It is filed as functional.
The target in assay [19] is T8, Neuropeptides B/W receptor type 1 (Homo sapiens, UniProt P48145).
T8 sequence (P48145 whole entry): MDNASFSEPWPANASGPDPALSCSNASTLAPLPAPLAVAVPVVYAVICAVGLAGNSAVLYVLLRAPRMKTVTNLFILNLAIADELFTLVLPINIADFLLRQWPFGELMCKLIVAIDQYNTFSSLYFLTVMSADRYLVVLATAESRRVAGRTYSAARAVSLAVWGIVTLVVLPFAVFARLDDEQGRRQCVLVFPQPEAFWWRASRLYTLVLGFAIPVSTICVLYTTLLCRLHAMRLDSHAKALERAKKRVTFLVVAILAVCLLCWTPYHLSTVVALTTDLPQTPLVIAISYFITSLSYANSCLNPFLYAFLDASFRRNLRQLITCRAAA
Nature of the assay: GPR7 antagonist potency, late-stage follow-up, cell-based, fluorescence, dose response, set 6 (AID 588583). In kind it is functional.

The text below walks through data of ChEMBL document CHEMBL1201862, “PubChem BioAssay data set” (2004).

Calls of active or inactive are those of the source.

T6 sequence (P63165 whole entry): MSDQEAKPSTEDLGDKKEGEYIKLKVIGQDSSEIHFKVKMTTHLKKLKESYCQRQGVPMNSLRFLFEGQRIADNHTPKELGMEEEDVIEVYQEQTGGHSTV
T5 sequence (P61956 whole entry): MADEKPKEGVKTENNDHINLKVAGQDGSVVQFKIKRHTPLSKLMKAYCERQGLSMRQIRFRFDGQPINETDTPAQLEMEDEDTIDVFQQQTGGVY
T4 sequence (Q9HC16 whole entry): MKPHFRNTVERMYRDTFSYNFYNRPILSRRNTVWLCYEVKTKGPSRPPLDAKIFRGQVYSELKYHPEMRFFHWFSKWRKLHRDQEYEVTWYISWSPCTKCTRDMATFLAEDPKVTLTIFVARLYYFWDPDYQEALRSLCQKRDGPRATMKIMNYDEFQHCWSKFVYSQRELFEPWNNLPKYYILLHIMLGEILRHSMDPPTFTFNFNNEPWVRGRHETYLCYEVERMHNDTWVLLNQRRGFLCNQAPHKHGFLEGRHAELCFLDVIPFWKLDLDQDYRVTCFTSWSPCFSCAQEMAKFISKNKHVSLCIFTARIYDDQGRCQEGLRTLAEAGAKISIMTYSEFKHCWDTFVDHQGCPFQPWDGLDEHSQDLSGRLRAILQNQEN
T3 sequence (P31941 whole entry): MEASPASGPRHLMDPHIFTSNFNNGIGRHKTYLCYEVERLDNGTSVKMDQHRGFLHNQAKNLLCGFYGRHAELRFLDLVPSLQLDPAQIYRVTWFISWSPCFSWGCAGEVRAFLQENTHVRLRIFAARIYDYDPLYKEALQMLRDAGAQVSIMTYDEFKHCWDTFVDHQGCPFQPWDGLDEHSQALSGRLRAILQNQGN
Genome polyprotein, sequence (P29990 2492-3391 limits assumed): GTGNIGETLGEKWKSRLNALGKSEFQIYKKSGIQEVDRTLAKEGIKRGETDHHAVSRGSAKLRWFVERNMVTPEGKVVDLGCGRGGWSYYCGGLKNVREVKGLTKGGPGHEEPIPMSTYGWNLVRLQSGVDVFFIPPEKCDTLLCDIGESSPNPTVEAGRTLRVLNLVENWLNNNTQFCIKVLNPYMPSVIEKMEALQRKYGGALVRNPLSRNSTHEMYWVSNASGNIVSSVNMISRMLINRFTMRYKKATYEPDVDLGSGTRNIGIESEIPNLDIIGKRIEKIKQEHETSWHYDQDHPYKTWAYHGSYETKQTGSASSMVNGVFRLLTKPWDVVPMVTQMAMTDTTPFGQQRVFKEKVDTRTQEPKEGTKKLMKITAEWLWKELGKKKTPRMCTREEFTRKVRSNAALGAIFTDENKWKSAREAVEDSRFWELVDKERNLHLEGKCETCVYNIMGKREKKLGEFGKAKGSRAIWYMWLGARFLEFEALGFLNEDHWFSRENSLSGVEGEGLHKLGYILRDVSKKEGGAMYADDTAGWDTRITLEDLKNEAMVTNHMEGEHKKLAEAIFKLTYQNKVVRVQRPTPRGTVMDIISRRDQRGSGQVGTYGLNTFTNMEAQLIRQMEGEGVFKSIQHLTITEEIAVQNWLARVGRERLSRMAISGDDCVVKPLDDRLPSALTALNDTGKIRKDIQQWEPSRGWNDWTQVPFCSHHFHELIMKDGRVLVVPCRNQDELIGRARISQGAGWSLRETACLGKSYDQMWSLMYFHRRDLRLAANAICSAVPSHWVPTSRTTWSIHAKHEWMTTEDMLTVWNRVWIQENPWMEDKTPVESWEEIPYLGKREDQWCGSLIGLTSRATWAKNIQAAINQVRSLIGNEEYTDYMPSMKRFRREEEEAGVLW
Intestinal-type alkaline phosphatase (Mus musculus, UniProt P24822), sequence (P24822 whole entry): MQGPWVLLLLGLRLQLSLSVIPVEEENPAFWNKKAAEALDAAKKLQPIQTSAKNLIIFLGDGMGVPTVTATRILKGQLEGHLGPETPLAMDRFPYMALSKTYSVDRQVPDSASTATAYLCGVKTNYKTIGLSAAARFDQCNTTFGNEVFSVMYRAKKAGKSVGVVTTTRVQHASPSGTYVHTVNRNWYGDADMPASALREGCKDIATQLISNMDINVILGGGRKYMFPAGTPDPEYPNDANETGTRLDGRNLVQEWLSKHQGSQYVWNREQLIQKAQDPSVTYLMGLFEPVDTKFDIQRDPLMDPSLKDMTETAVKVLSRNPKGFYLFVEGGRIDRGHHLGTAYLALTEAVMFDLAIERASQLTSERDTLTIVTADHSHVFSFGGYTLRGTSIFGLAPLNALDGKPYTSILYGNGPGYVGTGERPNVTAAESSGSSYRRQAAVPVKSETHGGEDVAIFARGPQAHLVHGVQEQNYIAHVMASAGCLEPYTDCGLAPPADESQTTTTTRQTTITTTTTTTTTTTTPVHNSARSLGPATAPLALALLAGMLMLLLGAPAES
Induced myeloid leukemia cell differentiation protein Mcl-1, sequence (Q07820 whole entry): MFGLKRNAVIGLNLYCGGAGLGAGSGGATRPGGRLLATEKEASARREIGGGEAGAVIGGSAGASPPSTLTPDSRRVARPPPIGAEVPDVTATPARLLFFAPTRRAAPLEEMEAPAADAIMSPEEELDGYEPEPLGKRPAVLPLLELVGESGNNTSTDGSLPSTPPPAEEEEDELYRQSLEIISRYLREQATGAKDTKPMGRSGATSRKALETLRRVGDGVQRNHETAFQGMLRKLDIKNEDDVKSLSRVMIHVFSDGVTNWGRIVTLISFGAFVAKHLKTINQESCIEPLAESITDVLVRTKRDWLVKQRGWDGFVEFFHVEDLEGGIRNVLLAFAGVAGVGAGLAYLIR
ORF 73, sequence (O40947 whole entry): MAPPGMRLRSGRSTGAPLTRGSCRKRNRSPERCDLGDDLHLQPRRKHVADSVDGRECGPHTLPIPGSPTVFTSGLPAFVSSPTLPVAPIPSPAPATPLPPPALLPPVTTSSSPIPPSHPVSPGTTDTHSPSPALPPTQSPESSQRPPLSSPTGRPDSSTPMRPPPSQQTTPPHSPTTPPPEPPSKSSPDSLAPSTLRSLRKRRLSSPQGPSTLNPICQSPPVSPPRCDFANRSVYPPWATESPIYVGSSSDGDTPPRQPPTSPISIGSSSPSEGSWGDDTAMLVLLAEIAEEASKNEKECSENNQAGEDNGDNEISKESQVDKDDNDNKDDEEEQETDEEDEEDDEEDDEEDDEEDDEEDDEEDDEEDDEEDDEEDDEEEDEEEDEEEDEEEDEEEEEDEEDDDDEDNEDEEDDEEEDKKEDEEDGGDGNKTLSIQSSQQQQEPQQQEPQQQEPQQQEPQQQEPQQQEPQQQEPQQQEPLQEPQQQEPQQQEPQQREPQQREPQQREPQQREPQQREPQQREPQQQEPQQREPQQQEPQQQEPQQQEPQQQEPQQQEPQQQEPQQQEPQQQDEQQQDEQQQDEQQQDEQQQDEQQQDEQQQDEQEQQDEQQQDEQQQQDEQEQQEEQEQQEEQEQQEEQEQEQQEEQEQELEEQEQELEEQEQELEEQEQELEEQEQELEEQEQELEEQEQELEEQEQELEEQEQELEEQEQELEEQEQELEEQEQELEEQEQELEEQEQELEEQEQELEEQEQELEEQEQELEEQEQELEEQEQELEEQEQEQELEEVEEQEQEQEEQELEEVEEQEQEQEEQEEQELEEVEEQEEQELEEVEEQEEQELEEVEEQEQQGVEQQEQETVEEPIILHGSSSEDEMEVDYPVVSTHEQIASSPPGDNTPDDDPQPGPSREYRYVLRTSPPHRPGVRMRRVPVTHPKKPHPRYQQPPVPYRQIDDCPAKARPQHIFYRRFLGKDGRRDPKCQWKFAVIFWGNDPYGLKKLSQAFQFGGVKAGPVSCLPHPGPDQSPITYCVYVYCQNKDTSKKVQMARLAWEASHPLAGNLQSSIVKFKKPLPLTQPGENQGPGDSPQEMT
Large T antigen, sequence (P03070 whole entry): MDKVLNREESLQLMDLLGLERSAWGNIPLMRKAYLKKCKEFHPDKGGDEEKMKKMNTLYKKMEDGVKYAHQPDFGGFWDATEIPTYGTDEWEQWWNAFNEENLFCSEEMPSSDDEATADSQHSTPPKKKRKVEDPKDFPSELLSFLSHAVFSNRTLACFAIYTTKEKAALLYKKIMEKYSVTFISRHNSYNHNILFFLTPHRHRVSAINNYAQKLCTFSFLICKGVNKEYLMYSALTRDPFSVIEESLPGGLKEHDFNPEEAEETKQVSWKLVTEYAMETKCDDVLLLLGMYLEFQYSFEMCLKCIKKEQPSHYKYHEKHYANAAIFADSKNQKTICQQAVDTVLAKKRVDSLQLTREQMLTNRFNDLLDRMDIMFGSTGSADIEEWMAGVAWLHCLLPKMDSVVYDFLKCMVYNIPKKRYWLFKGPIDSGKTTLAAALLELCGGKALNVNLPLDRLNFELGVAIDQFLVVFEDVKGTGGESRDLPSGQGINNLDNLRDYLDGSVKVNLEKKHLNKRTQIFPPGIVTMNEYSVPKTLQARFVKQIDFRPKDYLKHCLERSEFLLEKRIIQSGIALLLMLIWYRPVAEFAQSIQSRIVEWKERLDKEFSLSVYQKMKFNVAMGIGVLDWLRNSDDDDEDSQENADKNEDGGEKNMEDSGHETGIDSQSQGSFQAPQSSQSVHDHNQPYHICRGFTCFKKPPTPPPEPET
Eukaryotic translation initiation factor 4E, sequence (P63073 whole entry): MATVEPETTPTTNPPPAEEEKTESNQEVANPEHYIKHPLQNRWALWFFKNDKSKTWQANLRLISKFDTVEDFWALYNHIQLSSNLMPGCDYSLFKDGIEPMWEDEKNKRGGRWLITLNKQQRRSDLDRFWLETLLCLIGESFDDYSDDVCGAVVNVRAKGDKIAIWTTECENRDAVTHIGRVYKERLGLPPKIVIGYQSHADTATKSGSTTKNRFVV
Melanin-concentrating hormone receptor 1, sequence (Q99705 whole entry): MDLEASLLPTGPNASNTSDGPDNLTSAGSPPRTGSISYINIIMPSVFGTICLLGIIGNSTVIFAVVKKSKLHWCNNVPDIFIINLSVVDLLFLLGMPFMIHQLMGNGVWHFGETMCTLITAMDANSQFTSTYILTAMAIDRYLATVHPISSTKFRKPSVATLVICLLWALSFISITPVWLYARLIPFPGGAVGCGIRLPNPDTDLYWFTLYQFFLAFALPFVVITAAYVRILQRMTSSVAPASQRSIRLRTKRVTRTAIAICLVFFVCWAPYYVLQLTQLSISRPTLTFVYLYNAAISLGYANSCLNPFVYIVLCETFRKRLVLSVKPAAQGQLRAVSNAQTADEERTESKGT

As to `COc1ccc(C)cc1NC(=O)c1ccccc1NS(=O)(=O)c1ccc(Cl)s1`, in assay [1], the AC50 is 5.21 µM (active). In addition, the results for the IC50 (in [2]; in assay [3]; at Genome polyprotein) were 5.82 µM (active), 1.75 µM (active) and 49.3 µM (active), respectively. Also, in the assay with Vero, the CC50 was 22.6 µM (active).
`CC(=O)c1ccc2c(c1)C1C=CCC1C(C(=O)O)N2` (centres undefined): the IC50 on Large T antigen is 50.6 µM (active); in assay [4] it was 5.11 µM (active); in [6], 6.61 µM (active); in [7] it was 50 µM (inactive); in assay [8], 78.5 µM (active); in [9], 2.32 µM (active). In addition, the IC50 in assay [10] is 0.989 µM (active); in assay [11], 5.03 µM (active); in assay [12], 5.37 µM (active); in [13] it was 4.87 µM (active); in [14] it was 10.9 µM (active); in assay [15], 1.45 µM (active). For the same compound, in assay [16], the IC50 is 4.9 µM (active). In addition, the figures for the AC50 (with HeLa; on ORF 73; in assay [17]) were 277 µM (active), 15 µM (active) and 1.45 µM (active), respectively. Besides, in [5], the EC50 was > 100 µM (inactive).
In the case of `N#CC(c1cccc(F)c1)c1c(Cl)cnn(Cc2cccc3ccccc23)c1=O` (centres undefined), the IC50 in [18] and in assay [19] was 0.173 µM (active) each time.
